One compound from patent US20200385398A1, “NEW BICYCLIC DERIVATIVES” (Elanco Tiergesundheit AG, priority 2019, published 2020) can be followed below.

The subject of the assay is D. immitis microfilariae. Kind of assay: Dog heart worm microfilariae motility assay. Type of assay: cell-based. The note with it: Dirofilaria immitis, read-out: EC50 (motility inhibition).

Broadly, the EC50 is the concentration that produces a half-maximal response. As for `O=C(NN1CCOc2ccccc21)c1cnc2c(-c3cc(F)cc(F)c3F)cccc2c1N1CCSCC1` [Example 5.10, N-(2,3-dihydro-1,4-benzoxazin-4-yl)-4-thiomorpholino-8-(2,3,5-trifluorophenyl)quinoline-3-carboxamide], the EC50 was under 0.1 µg/mL.
